Data set [1] is described as follows: Solubility of the compound by chemiluminescent nitrogen detection assay. The data set is classed as physicochemical.
The target in data set [2] is T1, C-C chemokine receptor type 4 (Homo sapiens, UniProt P51679).
T1 sequence (P51679 whole entry): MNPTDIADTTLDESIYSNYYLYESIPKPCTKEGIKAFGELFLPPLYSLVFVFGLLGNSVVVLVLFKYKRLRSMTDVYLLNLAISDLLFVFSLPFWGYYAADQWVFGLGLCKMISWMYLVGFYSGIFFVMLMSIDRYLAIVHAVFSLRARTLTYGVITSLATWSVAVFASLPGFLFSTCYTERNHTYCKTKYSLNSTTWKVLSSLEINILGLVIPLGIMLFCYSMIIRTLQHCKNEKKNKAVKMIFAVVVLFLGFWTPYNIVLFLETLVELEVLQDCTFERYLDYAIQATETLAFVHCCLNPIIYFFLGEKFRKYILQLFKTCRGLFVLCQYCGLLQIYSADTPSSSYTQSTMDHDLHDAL
Kind of data set: Antagonist activity at human CCR4 expressed in CHO membranes assessed as inhibition of [35S]-GTPgammaS binding by scintillation counting. The data set is classed as functional, cell membranes. Background: GTPγS resists hydrolysis and so accumulates on activated G proteins.

Data set [3] addresses T1, C-C chemokine receptor type 4. Nature of the data set: Antagonist activity at human CCR4 in human whole blood assessed as inhibition of TARC-induced CD4+ CCR4+lymphocyte chemotaxis measuring F-actin content. The settings on record: read-out: pA2 (converted). In kind it is functional, tissue-based.
Data set [4] has the same target.
Description: Displacement of [125I]TARC from human CCR4 expressed in CHO membranes by SPA
A short description of data set [5]: Oral bioavailability in beagle dog at 1.1 mg/kg. The settings on record: in vivo. In kind it is ADME, organism-based, Canis lupus familiaris.
Data set [6] can be described thus: Volume of distribution at steady state in CD rat at 1 mg/kg, iv and 1 mg/kg, po. In kind it is ADME, organism-based. The following applies: in vivo, read-out: Vdss.
Data set [7] in a line: Oral bioavailability in CD rat at 1 mg/kg. In kind it is ADME, organism-based. The settings on record: in vivo.
Data set [8] in a line: Clearance in beagle dog at […], iv and 1.1 mg/kg, po. The data set is classed as ADME, organism-based, Canis lupus familiaris. The settings on record: in vivo.
Data set [9] can be described thus: Clearance in CD rat at 1 mg/kg, iv and 1 mg/kg, po. The settings on record: in vivo.
For the next data set, the system named is Rattus norvegicus. Nature of the data set: Clearance in CD rat at 1 mg/kg, iv and 1 mg/kg, po relative to liver blood flow. The following applies: in vivo. The data set is classed as ADME, organism-based.
For a further data set, the system named is Canis familiaris. Kind of data set: Clearance in beagle dog at […], iv and 1.1 mg/kg, po relative to liver blood flow. The data set is classed as ADME, organism-based, Canis lupus familiaris. The settings on record: in vivo.
Data set [10] is described as follows: Volume of distribution at steady state in beagle dog at […], iv and 1.1 mg/kg, po. The following applies: in vivo, read-out: Vdss. The data set is classed as ADME, organism-based, Canis lupus familiaris.
A short description of data set [11]: Permeability across MDCK cells. The data set is classed as ADME, cell-based, Canis lupus familiaris. The settings on record: dog, read-out: permeability.
The nature of data set [12]: Volume of distribution at steady state in beagle dog at 0.54 mg/kg, iv and 1.1 mg/kg, po. The data set is classed as ADME, organism-based, Canis lupus familiaris. The settings on record: in vivo, read-out: Vdss.

From ChEMBL document CHEMBL2016478, “Lead optimisation of the N1 substituent of a novel series of indazole arylsulfonamides as CCR4 antagonists and identification of a candidate for clinical investigation” (Bioorg Med Chem Lett, 2012) come the findings set out here.

Converted amounts (≈) assume the structure as drawn.

Usually solubility stands for the concentration that dissolves in the medium under given conditions. A lower solubility goes with little dissolved substance. As for `COc1ccc(COc2nc(Br)cnc2NS(=O)(=O)c2ccc(C)cc2)cc1OCCN(C)C`, the solubility in [1] is 170 µg/mL (≈ 308 µM).
By IC50 is commonly meant the concentration that inhibits the measured activity by half. By Ki is commonly meant the equilibrium dissociation constant of an inhibitor or competing ligand from its target. For `COc1ccc(Cn2nc(NS(=O)(=O)c3ccc(Cl)s3)c3c(OC)cccc32)cc1OC`, the IC50 in data set [2] was 22.9 nM. For the same compound, the Kb in data set [3] was 2510 nM. In addition, the inhibition constant Ki in data set [4] was 20 nM. For the same compound, the solubility in data set [1] is 46 µg/mL (≈ 93.1 µM).
As for `COc1cccc2c1c(NS(=O)(=O)c1ccc(Cl)s1)nn2Cc1cccc(CN(C)C(C)=O)c1`, the IC50 in data set [2] is 129 nM. The solubility in data set [1] is 151 µg/mL (≈ 291 µM).
Regarding `COc1cccc2c1c(NS(=O)(=O)c1ccc(Cl)s1)nn2Cc1ccc(CNC(C)=O)cc1`, in data set [4], the affinity corresponds to a Ki of 158 nM. The compound further showed a solubility in [1] of 104 µg/mL (≈ 206 µM).
On to `COc1cccc2c1c(NS(=O)(=O)c1ccc(Cl)s1)nn2Cc1cccc(C(=O)N(C)C)c1`, for which the solubility in data set [1] turned out to be 160 µg/mL (≈ 317 µM).
Turning to `CNC(=O)c1cccc(Cn2nc(NS(=O)(=O)c3ccc(Cl)s3)c3c(OC)cccc32)c1`, in [2], the IC50 is 79.4 nM. Also, in data set [4], the affinity corresponds to a Ki of 316 nM. This compound registered a solubility in data set [1] of 167 µg/mL (≈ 340 µM).
Regarding `COc1cccc2c1c(NS(=O)(=O)c1ccc(Cl)s1)nn2Cc1ccc(CO)cc1`, in [2], the IC50 is 47.9 nM. This compound showed a Ki in data set [4] of 50.1 nM. For the same compound, the solubility in data set [1] worked out at 123 µg/mL (≈ 265 µM).
Turning to `COc1cccc2c1c(NS(=O)(=O)c1ccc(Cl)s1)nn2Cc1cccc(C(N)=O)c1`, the IC50 in data set [2] is 55 nM. The Kb in data set [3] is 1580 nM. The Ki in data set [4] is 39.8 nM. The same compound yielded a solubility in data set [1] of 140 µg/mL (≈ 294 µM).
As for `COc1cccc2c1c(NS(=O)(=O)c1ccc(Cl)s1)nn2Cc1ccccc1`, the concentration for half-maximal inhibition (IC50) in [2] was 389 nM. Further, the Kb in data set [3] was 6310 nM. Also, the Ki in data set [4] is 251 nM. In addition, the solubility in [1] turned out to be 1 µg/mL (≈ 2.3 µM).
As to `COc1ccc(Cn2nc(NS(=O)(=O)c3ccc(Cl)s3)c3c(OC)cccc32)cc1`, the Ki in data set [4] was 251 nM. This compound also had a solubility in [1] of 7 µg/mL (≈ 15.1 µM).
On to `COc1cccc2c1c(NS(=O)(=O)c1ccc(Cl)s1)nn2Cc1ccccc1CO`, for which the half-maximal inhibitory concentration (IC50) in data set [2] was 324 nM. The Ki in [4] was 251 nM. This compound registered a solubility in data set [1] of 74 µg/mL (≈ 159 µM).
With `COc1cccc2c1c(NS(=O)(=O)c1ccc(Cl)s1)nn2Cc1cccc(CNC(=O)CO)c1`, the IC50 in data set [2] was 27.5 nM. Moreover, the Kb in data set [3] was 2000 nM. In [4], this compound gave a Ki of 15.8 nM. The same compound came in with a solubility in [1] of 167 µg/mL (≈ 321 µM).
For orientation: bioavailability means the share of a dose that reaches the circulation, judged against a reference dose that is usually intravenous. As for `COc1cccc2c1c(NS(=O)(=O)c1ccc(Cl)s1)nn2Cc1cccc(CNC(=O)C(C)(C)O)c1`, in data set [2], the IC50 is 14.8 nM. Further, the Kb in data set [3] is 631 nM. Also, the bioavailability was 97% in [5] and 85% in data set [7]. Further, the Vd was found to be 1.9 L/kg in [6] and 2.2 L/kg in data set [10]. The Ki in data set [4] was 10 nM. For the same compound, the clearance in [8] came out at 9 mL/min/kg; in data set [9] it was 15 mL/min/kg. Also, the CLH in the data set with Rattus norvegicus came to 18%; in the data set with Canis familiaris it was 29%. The concentration in solution in [1] (solubility) was 162 µg/mL (≈ 295 µM). The Papp in [11] was 13.2 ×10⁻⁶ cm/s.
Take `COc1cccc2c1c(NS(=O)(=O)c1ccc(Cl)s1)nn2Cc1cccc(CNC(=O)C(C)O)c1` (centres undefined): the IC50 in data set [2] was 12.6 nM. The Kb in data set [3] is 631 nM. The compound further had a Ki in data set [4] of 7.94 nM. The compound further showed a solubility in data set [1] of 146 µg/mL (≈ 273 µM).
On to `COc1cccc2c1c(NS(=O)(=O)c1ccc(Cl)s1)nn2Cc1cccc(CO)c1`, for which the IC50 in data set [2] is 32.4 nM. Further, in data set [3], the Kb is 6310 nM. The same compound showed a Ki in data set [4] of 39.8 nM. This compound also gave a solubility in data set [1] of 127 µg/mL (≈ 274 µM).
In turn, `COc1ccccc1Cn1nc(NS(=O)(=O)c2ccc(Cl)s2)c2c(OC)cccc21` gave a Ki in [4] of 158 nM. This compound had a solubility in [1] of 12 µg/mL (≈ 25.9 µM).
Turning to `COc1cccc2c1c(NS(=O)(=O)c1ccc(Cl)s1)nn2Cc1cccc(CNC(C)=O)c1`, the bioavailability came to 49% in data set [5] and 100% in data set [7]. For the same compound, the figures for the Vd in [6] and in data set [12] were 0.57 L/kg and 3.2 L/kg, respectively. Besides, in [1], the solubility is 124 µg/mL (≈ 246 µM). Moreover, in [11], the Papp stood at 25.4 ×10⁻⁶ cm/s.
Turning to `COc1cccc(Cn2nc(NS(=O)(=O)c3ccc(Cl)s3)c3c(OC)cccc32)c1`, the IC50 in [2] is 158 nM. In data set [4], this compound gave a Ki of 126 nM. In addition, in data set [1], the concentration in solution (solubility) was 12 µg/mL (≈ 25.9 µM).
`COc1cccc2c1c(NS(=O)(=O)c1ccc(Cl)s1)nn2Cc1cccc(CN)c1`: in data set [2], the IC50 is 91.2 nM. The Kb in data set [3] is 1000 nM. In addition, in data set [4], the inhibitory constant (Ki) is 100 nM. The compound further gave a solubility in data set [1] of 17 µg/mL (≈ 36.7 µM).
